According to patent US4001325A, “α-Chloroacetanilide selective herbicides” (Diamond Shamrock Corporation, priority 1973, dated 1977):

Key:
[1] = test system: broadleaf species: pigweed, velvetleaf, morningglory; test: Greenhouse preemergence herbicide test, broadleaves; type: in vivo; details: two weeks after treatment, 20160 min
Procedure: (§1) To illustrate the preemergence herbicidal efficiency of the alkyl-substituted 2-chloro-N-propargylacetanilides of this invention, test formulations are prepared of each compound by mixing 20 ml of an acetone solution containing 0.125 g of chemical with 20 ml of water containing 0.01 g of Triton X-155 surfactant. The resultant formulations contain 3125 ppm of test compound, 50% by volume of acetone and 0.025% by weight of surfactant. Appropriate lower concentrations are obtained by diluting this formulation with surfactant-acetone solution so that the concentration of adjuvants is maintained at the original levels.
(§2) Seeds of three broadleaf and three grass species are planted in soil contained in 10 inch × 8 inch × 3 inch aluminum pans filled with 1.5 inches of composted soil. The broadleaf species are pigweed (Amaranthus retroflexus), velvetleaf (Abutilon theophrasti), and morningglory (Ipomea coccinea); the grasses are red millet (Panicum milliacem), green foxtail (Setaria viridis) and Japanese millet (Echinochloa frumentacea).
(§3) The seeded pans are sprayed so that the soil surface is uniformly covered with dilutions of the stock formulation providing dosage rates of the test compounds as shown in the following table.
(§4) Two weeks after treatment, percent control (plant kill) at each dosage rate is estimated with results as follows: […]

[2] = test system: grass species: red millet, green foxtail, Japanese millet; test: Greenhouse preemergence herbicide test, grasses; type: in vivo, Panicum milliacem, Setaria viridis, Echinochloa frumentacea; details: pre-emergence, 336 h, two weeks after treatment; for pest or weed control at 69.4927 g/ha: 0.062 lb/A; for pest or weed control at 140.106 g/ha: 0.125 lb/A; for pest or weed control at 280.212 g/ha: 0.25 lb/A; for pest or weed control at 560.425 g/ha: 0.5 lb/A; for pest or weed control at 1120.85 g/ha: 1.0 lb/A
Procedure: as §1, §2, §3, §4

[3] = test system: Fall Panicum; test: Example 17 selective herbicidal activity in corn crop, weed kill; type: in vivo; details: Panicum dichotomiflorum, 3-4 weeks after planting; for mortality at 280.212 g/ha: 0.25 lb/A; for mortality at 560.425 g/ha: 0.5 lb/A; for mortality at 1120.85 g/ha: 1.0 lb/A; for mortality at 2241.7 g/ha: 2.0 lb/A
Text: (§5) This example illustrates the selective herbicidal activity of two of the presently preferred compounds of this invention against various weed species in a corn crop.
(§6) Plots of light sandy soil, cleared of all weeds, are uniformly treated with aqueous dispersions prepared from an emulsifiable concentrate containing 2- 4 pounds of active ingredient per gallon. Diluted aqueous dispersions are applied as surface treatments at 2.0, 1.0, 0.5, and 0.25 pound of active ingredient per acre (lb/A).
(§7) The treated test plots are sown to corn and with seeds of the following weed species:
(§8) Three to four weeks after planting, the degree of damage to both the corn stands and the weed plants is assessed from a rating of 0% (no injury) to 100% (complete destruction).

[4] = test system: Johnsongrass; test: as above; type: in vivo; details: Sorghum halepense, 3-4 weeks after planting; for mortality at 280.212 g/ha: 0.25 lb/A; for mortality at 560.425 g/ha: 0.5 lb/A; for mortality at 1120.85 g/ha: 1.0 lb/A; for mortality at 2241.7 g/ha: 2.0 lb/A
Text: as §5, §6, §7, §8

[5] = test system: Velvetleaf; test: as above; type: in vivo; details: Abutilon theophrasti, 3-4 weeks after planting; for mortality at 280.212 g/ha: 0.25 lb/A; for mortality at 560.425 g/ha: 0.5 lb/A; for mortality at 1120.85 g/ha: 1.0 lb/A; for mortality at 2241.7 g/ha: 2.0 lb/A
Text: as §5, §6, §7, §8

[6] = test system: corn; test: Example 17 damage to corn crop; type: in vivo
Text: as §5, §6, §7, §8

[7] = test system: Corn; test: Example 18 phytotoxic effects on crop stands in different soils; type: in vivo, field corn
Procedure: (§9) To further illustrate the herbicidal activity of compounds of this invention in different types of soil as would be encountered in different crop growing localities, a preemergence herbicide test is conducted generally as outlined previously herein. Two light sandy soils are employed containing 0.7% and 1.8% organic matter (O.M.), respectively, along with two loam-type, heavier soils containing either 2.0% or 5-5.5% organic matter (O.M.).
(§10) The test plots are all sprayed uniformly with formulations of the test compounds providing 2.0, 1.0, 0.5, and 0.25 pound of active chemical per acre (lb/A).
(§11) Prior to treatment, the soil plots are sown to field corn, soybean, and grain sorghum crops and seeds of barnyard-grass and yellow foxtail.
(§12) Three weeks after planting, the percent control of plant growth is rated from 0% (no injury) to 100% (total destruction). The results obtained are as follows:
(§13) Phytotoxic effects on the crop stands are similarly rated with the following results: […]

[8] = test system: Sorghum; test: as above; type: in vivo, grain sorghum
Procedure: as §9, §10, §11, §12, §13

[9] = 0.5 lb/A, Heavy Soil 5-5.5% O.M.
[10] = 0.5 lb/A, Medium Soil 2.0% O.M.
[11] = 1.0 lb/A, Heavy Soil 5-5.5% O.M.
[12] = 1.0 lb/A, Medium Soil 2.0% O.M.
[13] = 2.0 lb/A, Heavy Soil 5-5.5% O.M.
[14] = 2.0 lb/A, Medium Soil 2.0% O.M.

C#CCN(C(=O)CCl)c1c(CC)cccc1CC [Example 9, 2-Chloro-2',6'-diethyl-N-propargylacetanilide]
% Control, Broadleaves ([1]; 0.062 lb/A): 0%
% Control, Broadleaves ([1]; 0.125 lb/A): 0%
% Control, Broadleaves ([1]; 0.25 lb/A): 0%
% Control, Broadleaves ([1]; 0.5 lb/A): 35%
% Control, Broadleaves ([1]; 1.0 lb/A): 35%
pest or weed control at 69.4927 g/ha [2]: 85%
pest or weed control at 140.106 g/ha [2]: 95%
pest or weed control at 280.212 g/ha [2]: 95%
pest or weed control at 560.425 g/ha [2]: 90%
pest or weed control at 1120.85 g/ha [2]: 95%
mortality at 280.212 g/ha [3]: 73%
mortality at 560.425 g/ha [3]: 88%
mortality at 1120.85 g/ha [3]: 95%
mortality at 2241.7 g/ha [3]: 100%
mortality at 280.212 g/ha [4]: 0%
mortality at 560.425 g/ha [4]: 37%
mortality at 1120.85 g/ha [4]: 80%
mortality at 2241.7 g/ha [4]: 100%
mortality at 280.212 g/ha [5]: 0%
mortality at 560.425 g/ha [5]: 0%
mortality at 1120.85 g/ha [5]: 6%
mortality at 2241.7 g/ha [5]: 18%
phytotoxic effects on corn ([6]; 2 lb/A): no phytotoxic effects
% Phytotoxicity, Corn [7, 9]: 0%
% Phytotoxicity, Corn [7, 10]: 0%
% Phytotoxicity, Corn ([7]; 0.5 lb/A, Sand 0.7% O.M.): 0%
% Phytotoxicity, Corn ([7]; 0.5 lb/A, Sand 1.8% O.M.): 0%
% Phytotoxicity, Corn [7, 11]: 0%
% Phytotoxicity, Corn [7, 12]: 0%
% Phytotoxicity, Corn ([7]; 1.0 lb/A, Sand 0.7% O.M.): 0%
% Phytotoxicity, Corn ([7]; 1.0 lb/A, Sand 1.8% O.M.): 0%
% Phytotoxicity, Corn [7, 13]: 10%
% Phytotoxicity, Corn [7, 14]: 10%
% Phytotoxicity, Corn ([7]; 2.0 lb/A, Sand 0.7% O.M.): 0%
% Phytotoxicity, Corn ([7]; 2.0 lb/A, Sand 1.8% O.M.): 0%
% Phytotoxicity, Sorghum [8, 9]: 35%
% Phytotoxicity, Sorghum [8, 10]: 40%
% Phytotoxicity, Sorghum ([8]; 0.5 lb/A, Sand 0.7% O.M.): 0%
% Phytotoxicity, Sorghum ([8]; 0.5 lb/A, Sand 1.8% O.M.): 10%
% Phytotoxicity, Sorghum [8, 11]: 75%
% Phytotoxicity, Sorghum [8, 12]: 55%
% Phytotoxicity, Sorghum ([8]; 1.0 lb/A, Sand 0.7% O.M.): 10%
% Phytotoxicity, Sorghum ([8]; 1.0 lb/A, Sand 1.8% O.M.): 30%
% Phytotoxicity, Sorghum [8, 13]: 99%
% Phytotoxicity, Sorghum [8, 14]: 95%
% Phytotoxicity, Sorghum ([8]; 2.0 lb/A, Sand 0.7% O.M.): 30%
% Phytotoxicity, Sorghum ([8]; 2.0 lb/A, Sand 1.8% O.M.): 70%

C#CCN(C(=O)CCl)c1c(C)cccc1CC [Example 15, 2-Chloro-2'-methyl-6'-ethyl-N-propargylacetanilide]
% Control, Broadleaves ([1]; 0.5 lb/A): 0%
% Control, Broadleaves ([1]; 1.0 lb/A): 35%
pest or weed control at 69.4927 g/ha [2]: 0%
pest or weed control at 140.106 g/ha [2]: 70%
pest or weed control at 280.212 g/ha [2]: 85%
pest or weed control at 560.425 g/ha [2]: 98%
pest or weed control at 1120.85 g/ha [2]: 99%
mortality at 280.212 g/ha [3]: 78%
mortality at 560.425 g/ha [3]: 96%
mortality at 1120.85 g/ha [3]: 97%
mortality at 2241.7 g/ha [3]: 100%
mortality at 280.212 g/ha [4]: 0%
mortality at 560.425 g/ha [4]: 73%
mortality at 1120.85 g/ha [4]: 100%
mortality at 2241.7 g/ha [4]: 100%
mortality at 280.212 g/ha [5]: 0%
mortality at 560.425 g/ha [5]: 27%
mortality at 1120.85 g/ha [5]: 37%
mortality at 2241.7 g/ha [5]: 80%
injury to the corn ([6]; 1 lb/A): no injury
% Phytotoxicity, Corn [7, 9]: 0%
% Phytotoxicity, Corn [7, 10]: 0%
% Phytotoxicity, Corn ([7]; 0.5 lb/A, Sand 0.7% O.M.): 0%
% Phytotoxicity, Corn ([7]; 0.5 lb/A, Sand 1.8% O.M.): 0%
% Phytotoxicity, Corn [7, 11]: 0%
% Phytotoxicity, Corn [7, 12]: 10%
% Phytotoxicity, Corn ([7]; 1.0 lb/A, Sand 0.7% O.M.): 0%
% Phytotoxicity, Corn ([7]; 1.0 lb/A, Sand 1.8% O.M.): 0%
% Phytotoxicity, Corn [7, 13]: 10%
% Phytotoxicity, Corn [7, 14]: 55%
% Phytotoxicity, Corn ([7]; 2.0 lb/A, Sand 0.7% O.M.): 10%
% Phytotoxicity, Corn ([7]; 2.0 lb/A, Sand 1.8% O.M.): 0%
% Phytotoxicity, Sorghum [8, 9]: 45%
% Phytotoxicity, Sorghum [8, 10]: 60%
% Phytotoxicity, Sorghum ([8]; 0.5 lb/A, Sand 0.7% O.M.): 0%
% Phytotoxicity, Sorghum ([8]; 0.5 lb/A, Sand 1.8% O.M.): 20%
% Phytotoxicity, Sorghum [8, 11]: 90%
% Phytotoxicity, Sorghum [8, 12]: 100%
% Phytotoxicity, Sorghum ([8]; 1.0 lb/A, Sand 0.7% O.M.): 15%
% Phytotoxicity, Sorghum ([8]; 1.0 lb/A, Sand 1.8% O.M.): 65%
% Phytotoxicity, Sorghum [8, 13]: 99%
% Phytotoxicity, Sorghum [8, 14]: 100%
% Phytotoxicity, Sorghum ([8]; 2.0 lb/A, Sand 0.7% O.M.): 50%
% Phytotoxicity, Sorghum ([8]; 2.0 lb/A, Sand 1.8% O.M.): 90%
